Test results: patent publication US6573244B1 (priority 1999, dated 2003)
Ends that are not written are not given here.

Key:
[1] = rat, in vivo, ip
BttxB = BttxB (Clostridium botulinum, UniProt P10844); experiment: biochemical
Bttxs = conditions: cited from earlier work
[2] = target: T1, Botulinum toxin B, P10844; experiment: cell-based or functional assay
T1 chain: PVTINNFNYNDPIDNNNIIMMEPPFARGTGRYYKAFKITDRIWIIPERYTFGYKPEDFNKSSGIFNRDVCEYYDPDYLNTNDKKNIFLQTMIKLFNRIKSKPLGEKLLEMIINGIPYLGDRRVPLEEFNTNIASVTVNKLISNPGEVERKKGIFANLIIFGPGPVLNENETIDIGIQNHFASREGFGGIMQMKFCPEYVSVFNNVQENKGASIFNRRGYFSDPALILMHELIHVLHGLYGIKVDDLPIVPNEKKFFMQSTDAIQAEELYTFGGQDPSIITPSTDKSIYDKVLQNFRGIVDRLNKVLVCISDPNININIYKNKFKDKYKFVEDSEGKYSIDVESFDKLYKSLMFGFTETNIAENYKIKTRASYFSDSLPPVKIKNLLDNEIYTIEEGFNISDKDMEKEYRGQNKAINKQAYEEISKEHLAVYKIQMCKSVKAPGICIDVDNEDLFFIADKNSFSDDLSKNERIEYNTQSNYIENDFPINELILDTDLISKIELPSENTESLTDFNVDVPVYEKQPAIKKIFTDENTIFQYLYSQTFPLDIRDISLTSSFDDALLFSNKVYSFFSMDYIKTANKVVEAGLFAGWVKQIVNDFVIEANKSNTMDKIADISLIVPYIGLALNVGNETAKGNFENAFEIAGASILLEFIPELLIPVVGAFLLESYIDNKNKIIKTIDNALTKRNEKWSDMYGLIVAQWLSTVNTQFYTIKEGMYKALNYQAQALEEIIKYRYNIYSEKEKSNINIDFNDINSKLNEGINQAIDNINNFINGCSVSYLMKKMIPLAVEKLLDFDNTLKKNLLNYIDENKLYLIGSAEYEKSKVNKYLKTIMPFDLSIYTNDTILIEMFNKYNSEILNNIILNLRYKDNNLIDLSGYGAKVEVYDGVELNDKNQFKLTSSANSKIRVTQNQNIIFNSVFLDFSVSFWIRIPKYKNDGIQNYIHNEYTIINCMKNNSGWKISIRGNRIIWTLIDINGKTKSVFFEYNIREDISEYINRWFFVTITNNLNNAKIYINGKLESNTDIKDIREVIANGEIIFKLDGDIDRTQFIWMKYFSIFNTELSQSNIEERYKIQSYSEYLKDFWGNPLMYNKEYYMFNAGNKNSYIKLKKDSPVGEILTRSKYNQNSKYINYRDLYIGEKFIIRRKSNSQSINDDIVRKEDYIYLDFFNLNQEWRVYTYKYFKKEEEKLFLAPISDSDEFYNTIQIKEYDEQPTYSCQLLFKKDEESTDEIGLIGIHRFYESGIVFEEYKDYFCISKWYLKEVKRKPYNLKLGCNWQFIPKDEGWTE

For `CC(C)C[C@H](NC(=O)CNC(=O)[C@H](C)NC(=O)[C@H](CCCNC(=N)N)NC(=O)[C@H](CO)NC(=O)[C@H](CO)NC(=O)[C@H](CCCNC(=N)N)NC(=O)[C@@H](NC(=O)[C@H](CCCCN)NC(=O)[C@H](C)NC(=O)[C@H](CCCCN)NC(=O)[C@H](C)NC(=O)[C@H](CCCNC(=N)N)NC(=O)[C@@H](NC(=O)[C@H](CCCCN)NC(=O)CNC(=O)CNC(=O)[C@H](CCC(N)=O)NC(=O)[C@H](CCCCN)NC(=O)CNC(=O)[C@H](CCCNC(=N)N)NC(=O)CNC(=O)[C@H](C)N)C(C)C)[C@@H](C)O)C(=O)N[C@@H](CCC(N)=O)C(=O)N[C@@H](Cc1ccccc1)C(=O)N1CCC[C@H]1C(=O)N[C@H](C(=O)NCC(=O)N[C@@H](CCCNC(=N)N)C(=O)N[C@H](C(=O)N[C@@H](Cc1c[nH]cn1)C(=O)N[C@@H](CCCNC(=N)N)C(=O)N[C@@H](CC(C)C)C(=O)N[C@@H](CC(C)C)C(=O)N[C@@H](CCCNC(=N)N)C(=O)N[C@@H](CCCCN)C(=O)NCC(=O)N[C@@H](CC(N)=O)C(=O)N[C@@H](Cc1ccc(O)cc1)C(=O)O)C(C)C)C(C)C` [Buforin I], the “plateau (time to maximal-plateau level)” value [1] was ≤ 40 min, the “time the maximal-plateau level was maintained” value [1] was “up to 4 h” and the “time to reach ½ the absorbed maximal value” [1] was 7.7 min. For the same molecule, the “uptake into the blood stream, in words” value [1] was “rapid uptake”, the IC50 (BttxB) was 1 µM and the “mode of inhibition of BttxB activity” value (BttxB) was “dose-dependently and competitively inhibits”. The “substrate of BttxB or not” value (BttxB) was “not to be a substrate”.

In the case of `C[C@H](CS)C(=O)N1CCC[C@H]1C(=O)O` [captopril], the “inhibition of Bttxs, in words” value (Bttxs) is given as “not effective inhibitors”.

For `CC(C)C[C@H](NP(=O)(O)O[C@@H]1O[C@@H](C)[C@H](O)[C@@H](O)[C@H]1O)C(=O)N[C@@H](Cc1c[nH]c2ccccc12)C(=O)O` [phosphoramidon], the “inhibition of Bttxs, in words” value (Bttxs) is given as “not effective inhibitors”.

With “AGRGKQGGKVRAKAKTRSSRAGLQFPVGRVHRLLRK [Peptide 36]” the “substrate of BttxB or not” value (BttxB) was “not substrates”.

In the case of ELDDRADALQ [Peptide V2], the “inhibition of Bttxs, in words” value (Bttxs) is given as “found to inhibit Bttx activity”.

In the case of RPKPQQFFGLM [Substance P], the “inhibition of BttxB, in words” value (BttxB) is reported as “weak inhibitor” and the “substrate of BttxB or not” value (BttxB) is reported as “not a substrate”.

For TRSRAKGLQFPGLLVHRLLRKGNY [Peptide 05P], the IC50 (BttxB) was < 200 µM.

In the case of TRSSRAGLQFPVGRVHRLLRKGNY [Peptide 24], the “substrate of BttxB or not” value (BttxB) is reported as “not substrates”.

For TRSRAKGLQFPGLLVHRLLRKGNY (modifications not checked) [Peptide 05P], the inhibition of botulinum B proteolytic activity [2] was < 200 µM and the potency of inhibition relative to Substance P [2] was < 4 fold.
